Results as given in patent US9453026B2, “ACC inhibitors and uses thereof” (Gilead Apollo, Inc., priority 2011, dated 2016).

Columns and labels:
[1] = biological target: ACC1 (Homo sapiens, UniProt Q13085); assay: In vitro ACC1 inhibition assay (ADP-Glo); format: biochemical; conditions: read-out: ACC1
Experimental: An exemplary procedure for the in vitro ACC inhibition assay, which can be used to determine the inhibitory action of compounds of the invention toward either ACC1 or ACC2, follows. The ADP-Glo™ Kinase Assay kit from Promega was used. The ADP-Glo™ Kinase Assay is a luminescent ADP detection assay to measure enzymatic activity by quantifying the amount of ADP produced during an enzyme reaction. The assay is performed in two steps; first, after the enzyme reaction, an equal volume of ADP-Glo™ Reagent is added to terminate the reaction and deplete the remaining ATP. Second, the Kinase Detection Reagent is added to simultaneously convert ADP to ATP and allow the newly synthesized ATP to be measured using a luciferase/luciferin reaction. Luminescence can be correlated to ADP concentrations by using an ATP-to-ADP conversion curve. The detailed procedure is as follows. 50 μL of the compound being tested (600 uM in DMSO) was added to a 384-well dilution plate. The compound was diluted 1:3 in succession in DMSO for each row for 11 wells. 0.5 μL ACC2 working solution was added to 384-well white Optiplate assay plate. 0.5 μL diluted compound solution in each column from step 2 to assay plate, each row containing 2 replicates. […] The plates were incubated at room temperature for 15 minutes. 5 μL substrate working solution was added to each well to initiate reaction. […] Plates were incubated at room temperature for 60 minutes. 10 μL ADP glo reagent was added. Plates were incubated at room temperature for 40 minutes. 20 μL kinase detection reagent was added.
Data for each concentration, as well as the positive and negative controls were averaged, and the standard deviation calculated. Percent inhibition was calculated by the formula: 100× (average negative control−compound)/(average negative control−average positive control). The IC50 for each compound was calculated by fitting the data with a non-linear regression equation: Y=Bottom+(Top-Bottom)/(1+10^((Log IC50−X)*HillSlope)), where X is the log of compound concentration and Y is percent inhibition.
The compound numbers correspond to the compound numbers in Table 1.

[2] = biological target: ACC2 (Homo sapiens, UniProt O00763); assay: In vitro ACC2 inhibition assay (ADP-Glo); format: biochemical; conditions: read-out: ACC2
Summary of the method: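 Enzyme (human ACC1 or ACC2) and compound, serially diluted 1:3 over 11 points from a 600 uM DMSO stock, were preincubated 15 min before substrate addition.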

ACC2, sequence (O00763 whole entry, species assumed): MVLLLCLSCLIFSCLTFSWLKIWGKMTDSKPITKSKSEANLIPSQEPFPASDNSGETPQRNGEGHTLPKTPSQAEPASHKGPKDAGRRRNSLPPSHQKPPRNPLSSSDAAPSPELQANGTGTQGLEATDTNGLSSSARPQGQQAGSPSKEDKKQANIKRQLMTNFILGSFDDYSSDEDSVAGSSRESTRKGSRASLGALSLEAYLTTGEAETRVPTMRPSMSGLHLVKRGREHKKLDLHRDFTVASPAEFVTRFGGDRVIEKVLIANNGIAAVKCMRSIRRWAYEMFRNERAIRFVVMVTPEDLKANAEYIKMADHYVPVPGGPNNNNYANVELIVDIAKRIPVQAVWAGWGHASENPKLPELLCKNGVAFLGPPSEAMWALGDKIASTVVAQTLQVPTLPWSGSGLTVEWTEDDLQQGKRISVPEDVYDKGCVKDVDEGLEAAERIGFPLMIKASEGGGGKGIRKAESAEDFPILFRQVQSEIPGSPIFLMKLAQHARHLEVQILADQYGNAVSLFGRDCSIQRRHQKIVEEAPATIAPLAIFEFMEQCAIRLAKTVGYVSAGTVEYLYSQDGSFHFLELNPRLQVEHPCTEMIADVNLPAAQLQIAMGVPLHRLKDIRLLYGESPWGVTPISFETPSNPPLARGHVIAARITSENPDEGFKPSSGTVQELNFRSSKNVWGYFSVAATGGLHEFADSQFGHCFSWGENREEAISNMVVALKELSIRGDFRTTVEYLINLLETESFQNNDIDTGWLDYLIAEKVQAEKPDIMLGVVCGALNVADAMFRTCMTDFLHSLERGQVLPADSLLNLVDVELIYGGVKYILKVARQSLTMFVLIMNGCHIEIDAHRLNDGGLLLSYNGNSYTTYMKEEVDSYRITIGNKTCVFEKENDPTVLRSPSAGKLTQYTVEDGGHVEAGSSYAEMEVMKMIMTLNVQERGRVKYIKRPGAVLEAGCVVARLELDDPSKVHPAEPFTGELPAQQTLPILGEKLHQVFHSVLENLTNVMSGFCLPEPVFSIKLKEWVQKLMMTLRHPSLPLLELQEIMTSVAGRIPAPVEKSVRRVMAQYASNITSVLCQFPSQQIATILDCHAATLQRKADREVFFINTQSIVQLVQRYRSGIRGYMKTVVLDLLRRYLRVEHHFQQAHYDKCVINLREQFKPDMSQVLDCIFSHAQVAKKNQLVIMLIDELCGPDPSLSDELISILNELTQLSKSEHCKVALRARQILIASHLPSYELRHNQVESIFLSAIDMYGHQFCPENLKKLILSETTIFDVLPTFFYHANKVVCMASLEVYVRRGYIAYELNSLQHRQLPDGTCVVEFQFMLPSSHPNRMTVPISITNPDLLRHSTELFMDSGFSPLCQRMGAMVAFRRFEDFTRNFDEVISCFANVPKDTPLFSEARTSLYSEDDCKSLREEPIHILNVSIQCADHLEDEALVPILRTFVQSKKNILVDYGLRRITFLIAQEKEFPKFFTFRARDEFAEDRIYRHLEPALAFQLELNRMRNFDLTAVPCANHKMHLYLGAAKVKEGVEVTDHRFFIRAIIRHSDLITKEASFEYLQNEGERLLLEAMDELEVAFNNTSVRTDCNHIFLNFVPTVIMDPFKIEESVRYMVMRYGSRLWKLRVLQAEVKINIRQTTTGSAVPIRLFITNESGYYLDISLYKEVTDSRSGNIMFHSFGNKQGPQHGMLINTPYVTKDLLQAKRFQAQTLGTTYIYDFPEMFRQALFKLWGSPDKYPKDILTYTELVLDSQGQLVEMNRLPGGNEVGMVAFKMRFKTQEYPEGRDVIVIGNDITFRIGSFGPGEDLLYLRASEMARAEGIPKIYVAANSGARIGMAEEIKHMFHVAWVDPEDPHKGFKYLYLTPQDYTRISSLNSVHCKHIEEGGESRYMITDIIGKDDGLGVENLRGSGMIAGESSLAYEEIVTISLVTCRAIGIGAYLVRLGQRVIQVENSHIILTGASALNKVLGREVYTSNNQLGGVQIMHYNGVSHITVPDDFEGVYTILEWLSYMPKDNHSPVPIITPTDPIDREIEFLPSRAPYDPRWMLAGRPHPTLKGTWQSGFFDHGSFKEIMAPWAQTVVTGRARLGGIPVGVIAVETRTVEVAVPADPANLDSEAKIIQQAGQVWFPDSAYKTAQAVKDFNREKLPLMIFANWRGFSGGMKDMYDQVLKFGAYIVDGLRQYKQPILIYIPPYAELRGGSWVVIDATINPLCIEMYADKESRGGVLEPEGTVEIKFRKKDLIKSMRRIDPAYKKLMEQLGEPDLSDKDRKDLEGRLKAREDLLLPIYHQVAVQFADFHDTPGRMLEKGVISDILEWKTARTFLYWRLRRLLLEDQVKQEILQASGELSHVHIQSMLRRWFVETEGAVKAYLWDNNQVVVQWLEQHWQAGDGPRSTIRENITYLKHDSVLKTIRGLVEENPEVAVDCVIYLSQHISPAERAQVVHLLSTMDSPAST

SMILES	IC50 [1] [µM]	IC50 [2] [µM]
CCOC(=O)c1sc2c(c1C)c(=O)n(CC(=O)O)c(=O)n2CC(OC(C)C)c1ccccc1 (stereo in doubt) [I-96, (S)-2-(6-(ethoxycarbonyl)-1-(2-isopropoxy-2-phenylethyl)-5-methyl-2,4-dioxo-1,2-dihydrothieno[2,3-d]pyrimidin-3(4H)-yl)acetic acid]	< 0.1	5 to 20
CCOC(=O)c1sc2c(c1C)c(=O)n(C(C)(C)C(=O)O)c(=O)n2C[C@H](OC(C)CC)c1ccccc1 (stereo in doubt) [I-131, 2-[1-[(2R)-2-[(2R)-butan-2-yloxy]-2-phenylethyl]-6-(ethoxycarbonyl)-5-methyl-2,4-dioxo-1H,2H,3H,4H-thieno[2,3-d]pyrimidin-3-yl]-2-methylpropanoic acid]	< 1	< 1
Cc1c(-c2ncco2)sc2c1c(=O)n(C(C)(C)C(=O)O)c(=O)n2CC(Oc1ccccc1)c1ccccc1 (stereo in doubt) [I-143, 2-methyl-2-[5-methyl-6-(1,3-oxazol-2-yl)-2,4-dioxo-1-[(2S)-2-phenoxy-2-phenylethyl]-1H,2H,3H,4H-thieno[2,3-d]pyrimidin-3-yl]propanoic acid]	< 1	< 1
CCOC(=O)c1sc2c(c1C)c(=O)n(CCO)c(=O)n2CCc1ccccc1 [I-1]	< 5	5 to 20
CCOC(=O)c1sc2c(c1C)c(=O)n(CC(=O)O)c(=O)n2CCc1ccccc1 [I-13]	< 5	< 5
CCOC(=O)c1sc2c(c1C)c(=O)n(CC(N)=O)c(=O)n2CCc1ccccc1 [I-14]	< 5	< 5
CCOC(=O)c1sc2c(c1C)c(=O)n(CCCO)c(=O)n2CCc1ccccc1 [I-19, ethyl 3-(3-hydroxypropyl)-5-methyl-2,4-dioxo-1-(2-phenylethyl)-1H,2H,3H,4H-thieno[2,3-d]pyrimidine-6-carboxylate]	< 5	5 to 20
CCOC(=O)c1sc2c(c1C)c(=O)n(CCO)c(=O)n2CCc1ccccc1Cl [I-20, ethyl 1-[2-(2-chlorophenyl)ethyl]-3-(2-hydroxyethyl)-5-methyl-2,4-dioxo-1H,2H,3H,4H-thieno[2,3-d]pyrimidine-6-carboxylate]	5 to 20	< 5
CCOC(=O)c1sc2c(c1C)c(=O)n(CC(=O)O)c(=O)n2CCc1ccccc1Cl [I-31, 2-[1-[2-(2-chlorophenyl)ethyl]-6-(ethoxycarbonyl)-5-methyl-2,4-dioxo-1H,2H,3H,4H-thieno[2,3-d]pyrimidin-3-yl]acetic acid]	< 5	< 5
COc1ccccc1[C@@H](O)Cn1c(=O)n(C(C)(C)C(=O)O)c(=O)c2c(C)c(-c3ncco3)sc21 [I-248, 2-[1-[(2R)-2-hydroxy-2-(2-methoxyphenyl)ethyl]-5-methyl-6-(1,3-oxazol-2-yl)-2,4-dioxo-1H,2H,3H,4H-thieno[2,3-d]pyrimidin-3-yl]-2-methylpropanoic acid]	< 1	
Cc1c(-c2ncco2)sc2c1c(=O)n(C(C)(C)C(N)=O)c(=O)n2C[C@H](OC1CCOCC1)c1ccccc1Cl [I-252, 2-[1-[(2R)-2-(2-chlorophenyl)-2-(oxan-4-yloxy)ethyl]-5-methyl-6-(1,3-oxazol-2-yl)-2,4-dioxo-1H,2H,3H,4H-thieno[2,3-d]pyrimidin-3-yl]-2-methylpropanamide]	< 1	
Cc1c(-c2ncco2)sc2c1c(=O)n(C(C)(C)C(=O)N1CCC1)c(=O)n2C[C@H](OC1CCOCC1)c1ccccc1Cl [I-253, 3-[1-(azetidin-1-yl)-2-methyl-1-oxopropan-2-yl]-1-[(2R)-2-(2-chlorophenyl)-2-(oxan-4-yloxy)ethyl]-5-methyl-6-(1,3-oxazol-2-yl)-1H,2H,3H,4H-thieno[2,3-d]pyrimidine-2,4-dione]	< 1	
Cc1c(-c2ncco2)sc2c1c(=O)n(C(C)(C)C(=O)O)c(=O)n2C[C@H](OC(C)C)c1ccccc1OC(F)(F)F [I-265, (R)-2-(1-(2-isopropoxy-2-(2-(trifluoromethoxy)phenyl)ethyl)-5-methyl-6-(oxazol-2-yl)-2,4-doxo-1,2-dihydrotheno[2,3-d]pyrimidin-3(4H)-yl)-2-methylpropanoic acid]	< 1	
Cc1c(-c2ncco2)sc2c1c(=O)n(C(C)(C)C(=O)O)c(=O)n2C[C@H](OC1CCOCC1)c1ccccc1C(F)(F)F [I-266, 2-methyl-2-[5-methyl-1-[(2R)-2-(oxan-4-yloxy)-2-[2-(trifluoromethyl)phenyl]ethyl]-6-(1,3-oxazol-2-yl)-2,4-dioxo-1H,2H,3H,4H-thieno[2,3-d]pyrimidin-3-yl]propanoic acid]	< 1	
COc1ccccc1[C@H](Cn1c(=O)n(C(C)(C)C(=O)O)c(=O)c2c(C)c(-c3ncco3)sc21)OCC1COC1 [I-269, (R)-2-(1-(2-(2-methoxyphenyl)-2-(oxetan-3-ylmethoxy)ethyl)-5-methyl-6-(oxazol-2-yl)-2,4-dioxo-1,2-dihydrothieno[2,3-d]pyrimidin-3(4H)-yl)-2-methylpropanoic acid]	< 5	
COc1cc(Br)ccc1[C@H](Cn1c(=O)n(C(C)(C)C(=O)O)c(=O)c2c(C)c(-c3ncco3)sc21)OC1CCOCC1 [I-270, 2-[1-[(2R)-2-(4-bromo-2-methoxyphenyl)-2-(oxan-4-yloxy)ethyl]-5-methyl-6-(1,3-oxazol-2-yl)-2,4-dioxo-1H,2H,3H,4H-thieno[2,3-d]pyrimidin-3-yl]-2-methylpropanoic acid]	< 5	
Cc1c(-c2ncco2)sc2c1c(=O)n(C(C)(C)C(=O)O)c(=O)n2C[C@H](OC1CCOCC1)c1ccccc1O [I-273, 2-[1-[(2R)-2-(2-hydroxyphenyl)-2-(oxan-4-yloxy)ethyl]-5-methyl-6-(1,3-oxazol-2-yl)-2,4-dioxo-1H,2H,3H,4H-thieno[2,3-d]pyrimidin-3-yl]-2-methylpropanoic acid]	< 0.1	
COc1ccccc1[C@H](Cn1c(=O)n(C(C)(C)C(=O)N2CCC2)c(=O)c2c(C)c(-c3ncco3)sc21)OCC1CCOCC1 [I-275, 3-[1-(azetidin-1-yl)-2-methyl-1-oxopropan-2-yl]-1-[(2R)-2-(2-methoxyphenyl)-2-(oxan-4-ylmethoxy)ethyl]-5-methy-6-(1,3-oxazol-2-yl)-1H,2H,3H,4H-thieno[2,3-d]pyrimidine-2,4-dione]	< 0.1	
COc1ccccc1[C@H](Cn1c(=O)n(C(C)(C)C(=O)O)c(=O)c2c(C)c(-c3ncco3)sc21)OC1CCC(=O)CC1 [I-276, (R)-2-(1-(2-(2-methoxyphenyl)-2-((4-oxocyclohexyl)oxy)ethyl)-5-methyl-6-(oxazol-2-yl)-2,4-dioxo-1,2-dihydrotheno[2,3-d]pyrimidin-3(4H)-yl)-2-methylpropanoic acid]	< 0.1	
Cc1c(-c2ncco2)sc2c1c(=O)n(C(C)(C)C(N)=O)c(=O)n2C[C@H](OC1CCOCC1)c1ccccc1O [I-283, 2-[1-[(2R)-2-(2-hydroxyphenyl)-2-(oxan-4-yloxy)ethyl]-5-methyl-6-(1,3-oxazol-2-yl)-2,4-dioxo-1H,2H,3H,4H-thieno[2,3-d]pyrimidin-3-yl]-2-methylpropanamide]	< 0.1	
Cc1c(-c2ncco2)sc2c1c(=O)n(C(C)(C)C(=O)N1CCC1)c(=O)n2C[C@H](OC1CCOCC1)c1ccccc1O [I-284, 3-[1-(azetidin-1-yl)-2-methyl-1-oxopropan-2-yl]-1-[(2R)-2-(2-hydroxyphenyl)-2-(oxan-4-yloxy)ethyl]-5-methyl-6-(1,3-oxazol-2-yl)-1H,2H,3H,4H-thieno[2,3-d]pyrimidine-2,4-dione]	< 0.1	
COc1ccccc1[C@H](Cn1c(=O)n(CC(N)=O)c(=O)c2c(C)c(Br)sc21)OC1CCOCC1 [I-285, 2-[6-bromo-1-[(2R)-2-(2-methoxyphenyl)-2-(oxan-4-yloxy)ethyl]-5-methyl-2,4-dioxo-1H,2H,3H,4H-thieno[2,3-d]pyrimidin-3-yl]acetamide]		< 5
COCc1ccccc1[C@H](Cn1c(=O)n(C(C)(C)C(=O)O)c(=O)c2c(C)c(-c3ncco3)sc21)OC1CCOCC1 [I-293, 2-[1-[(2R)-2-[2-(methoxymethyl)phenyl]-2-(oxan-4-yloxy)ethyl]-5-methyl-6-(1,3-oxazol-2-yl)-2,4-dioxo-1H,2H,3H,4H-thieno[2,3-d]pyrimidin-3-yl]-2-methylpropanoic acid]		< 0.1
Cc1c(-c2ncco2)sc2c1c(=O)n(C(C)(C)C(=O)O)c(=O)n2C[C@H](OC1CCOCC1)c1ccccc1CO [I-296, 2-[1-[(2R)-2-[2-(hydroxymethyl)phenyl]-2-(oxan-4-yloxy)ethyl]-5-methyl-6-(1,3-oxazol-2-yl)-2,4-dioxo-1H,2H,3H,4H-thieno[2,3-d]pyrimidin-3-yl]-2-methylpropanoic acid]		< 0.1
